Where a name gives a salt, the structure may show the parent alone. One block for each compound: values may come before it.
Columns and labels:
[1] = Elimination of the molecules: cumulative urinary and faecal excretion 0-72 hours; assay type: in vivo, mouse; details: for Faecal elimination 0-72 hours (Faeces) / Urinary and faecal elimination 0-72 hours (Total) / Urinary elimination 0-72 hours (Urine): cumulative excretion 0-72 hours; for Faecal elimination 0-72 hours (Faeces) / Urinary elimination 0-72 hours (Urine): mice in metabolic cages; for Urinary and faecal elimination 0-72 hours (Total): urine + faeces; for elimination kinetics from the body (in words): urine and faeces, up to 72 hours
tumour = assay: Dosimetry with regard to the tumour (MIRD programme, extrapolated to ^131I); details: for Effective period: extrapolated to 131I labelling; for Biological period: from biodistribution data
[2] = system: grafted B16 F0 murine melanoma tumour; assay: Biodistribution of the ^125I-labelled molecules in the melanoma-bearing mouse (autoradiography of whole-body sections)
Description: The distribution of the radioactivity of the various compounds in the body (tumour and other organs) is quantified using an Ambis 4000 image analyzer on sections of whole animals. […] All the in vivo experimentation is carried out within the context defined by French legislation relating to animal experimentation.
The B16 F0 melanoma cells are provided by the ATCC and cultured in monolayers in culture medium (MEM, Invitrogen) supplemented with 10% foetal calf serum and antibiotics. The cultures are maintained by subculturing after trypsinization. The cells of the first passages are frozen and stored in liquid nitrogen. For the transplanting, the cells in culture at confluence are detached by trypsinization and washed with phosphate buffer (PBS).
The distribution of the radioactivity present in the sections is analyzed using an AMBIS 4000 analyzer (Scanalytics, CSPI, San Diego, Calif.), which is a proportional counter with a multiwire chamber validated and calibrated beforehand for the monitoring of iodine in the mouse. The measurements require acquisition times of 1000 minutes. […] The value of radioactivity per unit of surface area (cpm/mm^2) is converted to concentration (kBq/g) and expressed as percentage of the injected dose/g of tissue (% ID/g).

[3] = 1 H after i.v. administration, ^125I-labelled compound
[4] = 3 H after i.v. administration, ^125I-labelled compound
[5] = 6 H after i.v. administration, ^125I-labelled compound
[6] = 24 H after i.v. administration, ^125I-labelled compound
[7] = 72 H after i.v. administration, ^125I-labelled compound

Structure (SMILES): CCN(CC)CCNC(=O)c1cc2c(I)cccc2s1.Cl [compound 13, N-(2-diethylaminoethyl)-4-iodobenzo[b]thiophene-2-carboxamide hydrochloride]
Faecal elimination 0-72 hours (Faeces) [1]: 46.7%
Urinary and faecal elimination 0-72 hours (Total) [1]: 99.3%
Urinary elimination 0-72 hours (Urine) [1]: 52.6%
elimination route (in words) ([1]; urinary versus faecal, 0-72 hours): about equivalent
elimination kinetics from the body (in words) [1]: complete at 72 hours
Effective period (tumour): 23.5 h
Biological period (tumour): 26.7 hours
Concentration of radioactivity, Ic (intestinal contents), Mean [2, 3]: 71.13 % ID/g
Concentration of radioactivity, Sc (stomach contents), Mean [2, 3]: 20.00 % ID/g
Concentration of radioactivity, blood (measured in the heart cavity), Mean [2, 3]: 1.37 % ID/g
Concentration of radioactivity, brain, Mean [2, 3]: 0.81 % ID/g
Concentration of radioactivity, kidney, Mean [2, 3]: 5.61 % ID/g
Concentration of radioactivity, liver, Mean [2, 3]: 2.21 % ID/g
Concentration of radioactivity, lungs, Mean [2, 3]: 3.69 % ID/g
Concentration of radioactivity, muscle (skeletal muscle), Mean [2, 3]: 0.77 % ID/g
Concentration of radioactivity, spleen, Mean [2, 3]: 3.88 % ID/g
Concentration of radioactivity, thyroid, Mean [2, 3]: 24.03 % ID/g
Concentration of radioactivity, uvea (pigmented tissues of the eye), Mean [2, 3]: 16.09 % ID/g
Concentration of radioactivity, B 16 (tumour), Mean [2, 4]: 9.98 % ID/g
Concentration of radioactivity, GB (gall bladder), Mean [2, 4]: 65.56 % ID/g
Concentration of radioactivity, Ic (intestinal contents), Mean [2, 4]: 73.02 % ID/g
Concentration of radioactivity, Sc (stomach contents), Mean [2, 4]: 5.93 % ID/g
Concentration of radioactivity, liver, Mean [2, 4]: 1.25 % ID/g
Concentration of radioactivity, thyroid, Mean [2, 4]: 67.21 % ID/g
Concentration of radioactivity, uvea (pigmented tissues of the eye), Mean [2, 4]: 19.51 % ID/g
Concentration of radioactivity, B 16 (tumour), Mean [2, 5]: 8.72 % ID/g
Concentration of radioactivity, Ic (intestinal contents), Mean [2, 5]: 37.70 % ID/g
Concentration of radioactivity, Sc (stomach contents), Mean [2, 5]: 18.77 % ID/g
Concentration of radioactivity, thyroid, Mean [2, 5]: 139.12 % ID/g
Concentration of radioactivity, uvea (pigmented tissues of the eye), Mean [2, 5]: 16.29 % ID/g
Concentration of radioactivity, B 16 (tumour), Mean [2, 6]: 7.28 % ID/g
Concentration of radioactivity, thyroid, Mean [2, 6]: 79.82 % ID/g
Concentration of radioactivity, uvea (pigmented tissues of the eye), Mean [2, 6]: 11.06 % ID/g
Concentration of radioactivity, B 16 (tumour), Mean [2, 7]: 1.73 % ID/g
Concentration of radioactivity, uvea (pigmented tissues of the eye), Mean [2, 7]: 9.22 % ID/g

Faecal elimination 0-72 hours (Faeces) [1]: 24.0%
Urinary and faecal elimination 0-72 hours (Total) [1]: 76.6%
Urinary elimination 0-72 hours (Urine) [1]: 52.6%
Effective period (tumour): 7.5 h
Biological period (tumour): 7.8 hours
Concentration of radioactivity, B 16 (tumour), Mean [2, 3]: 2.96 % ID/g
Concentration of radioactivity, Ic (intestinal contents), Mean [2, 3]: 58.60 % ID/g
Concentration of radioactivity, Sc (stomach contents), Mean [2, 3]: 24.51 % ID/g
Concentration of radioactivity, blood (measured in the heart cavity), Mean [2, 3]: 2.20 % ID/g
Concentration of radioactivity, brain, Mean [2, 3]: 0.33 % ID/g
Concentration of radioactivity, kidney, Mean [2, 3]: 7.12 % ID/g
Concentration of radioactivity, liver, Mean [2, 3]: 4.86 % ID/g
Concentration of radioactivity, lungs, Mean [2, 3]: 6.48 % ID/g
Concentration of radioactivity, muscle (skeletal muscle), Mean [2, 3]: 1.10 % ID/g
Concentration of radioactivity, spleen, Mean [2, 3]: 8.16 % ID/g
Concentration of radioactivity, uvea (pigmented tissues of the eye), Mean [2, 3]: 28.30 % ID/g
Concentration of radioactivity, B 16 (tumour), Mean [2, 4]: 5.40 % ID/g
Concentration of radioactivity, Ic (intestinal contents), Mean [2, 4]: 52.06 % ID/g
Concentration of radioactivity, Sc (stomach contents), Mean [2, 4]: 30.71 % ID/g
Concentration of radioactivity, blood (measured in the heart cavity), Mean [2, 4]: 3.93 % ID/g
Concentration of radioactivity, brain, Mean [2, 4]: 0.36 % ID/g
Concentration of radioactivity, kidney, Mean [2, 4]: 5.04 % ID/g
Concentration of radioactivity, liver, Mean [2, 4]: 2.56 % ID/g
Concentration of radioactivity, lungs, Mean [2, 4]: 3.38 % ID/g
Concentration of radioactivity, muscle (skeletal muscle), Mean [2, 4]: 1.30 % ID/g
Concentration of radioactivity, spleen, Mean [2, 4]: 12.67 % ID/g
Concentration of radioactivity, uvea (pigmented tissues of the eye), Mean [2, 4]: 16.60 % ID/g
Concentration of radioactivity, B 16 (tumour), Mean [2, 5]: 9.87 % ID/g
Concentration of radioactivity, Ic (intestinal contents), Mean [2, 5]: 26.14 % ID/g
Concentration of radioactivity, Sc (stomach contents), Mean [2, 5]: 48.21 % ID/g
Concentration of radioactivity, brain, Mean [2, 5]: 0.65 % ID/g
Concentration of radioactivity, kidney, Mean [2, 5]: 4.47 % ID/g
Concentration of radioactivity, lungs, Mean [2, 5]: 4.56 % ID/g
Concentration of radioactivity, uvea (pigmented tissues of the eye), Mean [2, 5]: 22.16 % ID/g
Concentration of radioactivity, B 16 (tumour), Mean [2, 6]: 5.22 % ID/g
Concentration of radioactivity, uvea (pigmented tissues of the eye), Mean [2, 6]: 11.17 % ID/g
Concentration of radioactivity, Sc (stomach contents), Mean [2, 7]: 3.42 % ID/g
Concentration of radioactivity, uvea (pigmented tissues of the eye), Mean [2, 7]: 2.41 % ID/g
Structure (SMILES): CCN(CC)CCNC(=O)c1nc2ccccn2c1I [compound 16, N-(2-diethylaminoethyl)-3-iodoimidazo[1,2-a]pyridine-2-carboxamide dihydrochloride]

Structure (SMILES): CCN(CC)CCNC(=O)c1nc2ccc(I)cc2[nH]1.Cl.Cl [compound 26, N-(2-diethylaminoethyl)-5-iodobenzimidazole-2-carboxamide dihydrochloride]
Faecal elimination 0-72 hours (Faeces) [1]: 40.7%
Urinary and faecal elimination 0-72 hours (Total) [1]: 57.8%
Urinary elimination 0-72 hours (Urine) [1]: 17.1%
elimination kinetics from the body (in words) [1]: lower elimination
Effective period (tumour): 35.1 h
Biological period (tumour): 42.9 hours
Concentration of radioactivity, B 16 (tumour), Mean [2, 3]: 14.78 % ID/g
Concentration of radioactivity, Ic (intestinal contents), Mean [2, 3]: 105.55 % ID/g
Concentration of radioactivity, Sc (stomach contents), Mean [2, 3]: 24.46 % ID/g
Concentration of radioactivity, blood (measured in the heart cavity), Mean [2, 3]: 3.31 % ID/g
Concentration of radioactivity, kidney, Mean [2, 3]: 6.90 % ID/g
Concentration of radioactivity, liver, Mean [2, 3]: 13.08 % ID/g
Concentration of radioactivity, lungs, Mean [2, 3]: 5.16 % ID/g
Concentration of radioactivity, muscle (skeletal muscle), Mean [2, 3]: 0.55 % ID/g
Concentration of radioactivity, pancreas, Mean [2, 3]: 6.17 % ID/g
Concentration of radioactivity, spleen, Mean [2, 3]: 11.51 % ID/g
Concentration of radioactivity, uvea (pigmented tissues of the eye), Mean [2, 3]: 12.87 % ID/g
Concentration of radioactivity, B 16 (tumour), Mean [2, 4]: 16.13 % ID/g
Concentration of radioactivity, GB (gall bladder), Mean [2, 4]: 160.60 % ID/g
Concentration of radioactivity, Ic (intestinal contents), Mean [2, 4]: 72.05 % ID/g
Concentration of radioactivity, Sc (stomach contents), Mean [2, 4]: 17.98 % ID/g
Concentration of radioactivity, blood (measured in the heart cavity), Mean [2, 4]: 1.33 % ID/g
Concentration of radioactivity, kidney, Mean [2, 4]: 4.57 % ID/g
Concentration of radioactivity, liver, Mean [2, 4]: 7.15 % ID/g
Concentration of radioactivity, lungs, Mean [2, 4]: 3.74 % ID/g
Concentration of radioactivity, thyroid, Mean [2, 4]: 63.44 % ID/g
Concentration of radioactivity, uvea (pigmented tissues of the eye), Mean [2, 4]: 24.40 % ID/g
Concentration of radioactivity, B 16 (tumour), Mean [2, 5]: 9.90 % ID/g
Concentration of radioactivity, GB (gall bladder), Mean [2, 5]: 38.11 % ID/g
Concentration of radioactivity, Ic (intestinal contents), Mean [2, 5]: 95.86 % ID/g
Concentration of radioactivity, Sc (stomach contents), Mean [2, 5]: 8.62 % ID/g
Concentration of radioactivity, liver, Mean [2, 5]: 3.38 % ID/g
Concentration of radioactivity, spleen, Mean [2, 5]: 14.97 % ID/g
Concentration of radioactivity, thyroid, Mean [2, 5]: 34.17 % ID/g
Concentration of radioactivity, uvea (pigmented tissues of the eye), Mean [2, 5]: 10.09 % ID/g
Concentration of radioactivity, B 16 (tumour), Mean [2, 6]: 7.06 % ID/g
Concentration of radioactivity, Ic (intestinal contents), Mean [2, 6]: 3.19 % ID/g
Concentration of radioactivity, Sc (stomach contents), Mean [2, 6]: 2.32 % ID/g
Concentration of radioactivity, thyroid, Mean [2, 6]: 142.88 % ID/g
Concentration of radioactivity, uvea (pigmented tissues of the eye), Mean [2, 6]: 10.44 % ID/g
Concentration of radioactivity, B 16 (tumour), Mean [2, 7]: 4.54 % ID/g
Concentration of radioactivity, thyroid, Mean [2, 7]: 174.73 % ID/g
Concentration of radioactivity, uvea (pigmented tissues of the eye), Mean [2, 7]: 7.26 % ID/g
tumour concentration, times higher than with BZA ([2]; at 72 hours (FIG. 1B)): 6 times
tumour concentration, % of the injected dose per gram of tumour ([2]; from the first hour): 14.8 % ID/g

Reference: patent US20100061928A1, “LABELLED ANALOGUES OF HALOBENZAMIDES AS RADIOPHARMACEUTICALS” (Institut National De La Sante et De La Recherche Medicale …, priority 2006, published 2010)
